According to ChEMBL document CHEMBL1201862, “PubChem BioAssay data set” (2004):
Activity calls are given as the source filed them.

Assays:
Mucolipin-3 = Mucolipin-3 (Homo sapiens, UniProt Q8TDD5); experiment: Dose response cell-based high-throughput screening assay for agonists of the transient receptor potential channel ML3 (TRPML3). [Related pubchem assays: 1526, 1424, 1448 ]; type: functional
Ion channel NompC = Ion channel NompC (Danio rerio, UniProt Q7T1G6); experiment: Fluorescence counterscreen assay for TRPML3 agonists: dose response cell-based high-throughput screening assay to identify agonists of the transient receptor potential channel N1 (TRPN1). [Related pubchem assays: 1526, 1424, 1448 ]; type: functional
Ion channel NompC, sequence (Q7T1G6 whole entry): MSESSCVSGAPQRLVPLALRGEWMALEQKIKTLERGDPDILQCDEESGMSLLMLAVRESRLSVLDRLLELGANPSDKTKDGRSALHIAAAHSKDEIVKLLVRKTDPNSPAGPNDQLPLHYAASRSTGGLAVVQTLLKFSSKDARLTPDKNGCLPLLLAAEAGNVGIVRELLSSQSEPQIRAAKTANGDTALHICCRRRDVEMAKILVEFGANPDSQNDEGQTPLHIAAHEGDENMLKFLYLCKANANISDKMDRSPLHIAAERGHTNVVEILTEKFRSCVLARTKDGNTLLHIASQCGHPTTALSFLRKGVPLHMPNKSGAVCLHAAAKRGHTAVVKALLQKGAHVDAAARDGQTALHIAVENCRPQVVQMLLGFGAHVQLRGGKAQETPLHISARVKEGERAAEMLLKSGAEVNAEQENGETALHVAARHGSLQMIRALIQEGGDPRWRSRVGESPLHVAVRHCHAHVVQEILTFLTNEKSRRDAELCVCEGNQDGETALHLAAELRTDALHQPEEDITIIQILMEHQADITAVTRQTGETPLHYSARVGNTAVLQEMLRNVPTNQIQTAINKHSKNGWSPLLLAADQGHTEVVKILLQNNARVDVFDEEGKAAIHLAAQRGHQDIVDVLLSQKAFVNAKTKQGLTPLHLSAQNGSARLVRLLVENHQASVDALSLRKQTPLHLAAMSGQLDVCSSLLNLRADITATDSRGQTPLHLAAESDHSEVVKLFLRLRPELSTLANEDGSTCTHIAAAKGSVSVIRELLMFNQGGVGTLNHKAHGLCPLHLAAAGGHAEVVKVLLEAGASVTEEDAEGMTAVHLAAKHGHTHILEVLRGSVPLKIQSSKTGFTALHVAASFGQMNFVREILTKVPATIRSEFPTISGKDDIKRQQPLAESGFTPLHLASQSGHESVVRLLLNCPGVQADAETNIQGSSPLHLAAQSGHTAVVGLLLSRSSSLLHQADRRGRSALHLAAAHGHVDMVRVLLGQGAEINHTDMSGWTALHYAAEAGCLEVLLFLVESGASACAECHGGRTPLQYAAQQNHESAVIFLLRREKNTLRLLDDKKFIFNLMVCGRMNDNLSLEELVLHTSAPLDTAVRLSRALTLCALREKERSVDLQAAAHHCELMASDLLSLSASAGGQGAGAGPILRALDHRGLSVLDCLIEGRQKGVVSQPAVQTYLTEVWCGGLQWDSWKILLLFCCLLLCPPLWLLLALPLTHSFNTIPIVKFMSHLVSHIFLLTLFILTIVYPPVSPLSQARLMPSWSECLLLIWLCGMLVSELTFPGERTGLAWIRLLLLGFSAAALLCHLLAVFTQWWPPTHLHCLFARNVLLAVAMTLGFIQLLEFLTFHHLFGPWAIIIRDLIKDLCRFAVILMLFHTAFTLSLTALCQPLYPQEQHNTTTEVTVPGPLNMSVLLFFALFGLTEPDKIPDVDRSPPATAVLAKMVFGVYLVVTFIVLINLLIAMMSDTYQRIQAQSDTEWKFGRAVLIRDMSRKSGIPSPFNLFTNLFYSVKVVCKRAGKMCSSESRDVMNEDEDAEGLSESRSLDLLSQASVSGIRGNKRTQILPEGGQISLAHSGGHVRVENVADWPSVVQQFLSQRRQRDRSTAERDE

[1] = target: T1, Heat shock 70 kDa protein 1A (Homo sapiens, UniProt P0DMV8); experiment: small molecules displacing fluorescent ligand from Hsp70 – biochemical, fluorescence polarization, primary screen (AID 583)
T1 sequence (P0DMV8 whole entry): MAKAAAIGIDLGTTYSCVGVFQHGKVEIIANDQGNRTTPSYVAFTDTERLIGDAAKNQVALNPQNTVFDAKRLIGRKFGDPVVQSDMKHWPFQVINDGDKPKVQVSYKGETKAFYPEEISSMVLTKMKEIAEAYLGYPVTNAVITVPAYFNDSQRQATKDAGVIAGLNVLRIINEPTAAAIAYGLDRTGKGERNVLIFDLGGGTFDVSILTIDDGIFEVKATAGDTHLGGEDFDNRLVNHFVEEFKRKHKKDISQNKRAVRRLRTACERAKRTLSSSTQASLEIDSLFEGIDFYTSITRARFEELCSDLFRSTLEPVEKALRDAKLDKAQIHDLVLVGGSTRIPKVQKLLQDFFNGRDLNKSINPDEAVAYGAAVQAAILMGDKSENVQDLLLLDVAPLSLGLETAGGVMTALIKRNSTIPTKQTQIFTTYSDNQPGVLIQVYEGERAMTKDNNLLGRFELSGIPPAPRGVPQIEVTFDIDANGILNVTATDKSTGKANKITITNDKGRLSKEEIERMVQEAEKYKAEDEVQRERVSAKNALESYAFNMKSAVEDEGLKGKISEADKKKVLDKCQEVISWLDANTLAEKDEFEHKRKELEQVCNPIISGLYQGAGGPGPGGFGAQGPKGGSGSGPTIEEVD

[2] = target: T1, Heat shock 70 kDa protein 1A; experiment: small-molecule inhibition of Hsp70 – biochemical, TR-FRET (AID 786)
[3] = target: Mothers against decapentaplegic homolog 3 (Homo sapiens, UniProt P84022); experiment: blockers of Smad3 complex formation in lysate – cell lysate, secondary confirmation, chemiluminescent ELISA, HEK293 lysate, dose response (AID 1058); type: functional
Mothers against decapentaplegic homolog 3, sequence (P84022 whole entry): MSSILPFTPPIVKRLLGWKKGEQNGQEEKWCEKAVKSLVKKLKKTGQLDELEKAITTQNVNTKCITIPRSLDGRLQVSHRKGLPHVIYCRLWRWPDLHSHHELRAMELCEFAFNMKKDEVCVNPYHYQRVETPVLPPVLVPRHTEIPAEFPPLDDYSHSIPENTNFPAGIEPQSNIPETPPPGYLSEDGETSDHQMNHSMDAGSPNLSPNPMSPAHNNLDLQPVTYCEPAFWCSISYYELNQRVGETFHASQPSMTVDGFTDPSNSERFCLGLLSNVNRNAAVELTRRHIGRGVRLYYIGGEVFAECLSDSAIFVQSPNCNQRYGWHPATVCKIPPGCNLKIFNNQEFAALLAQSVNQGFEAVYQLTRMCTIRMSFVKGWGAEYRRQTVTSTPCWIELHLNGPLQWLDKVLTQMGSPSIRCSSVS

[4] = antiviral protection against BTV-induced cell death – arbovirus, BSR cells, confirmation (AID 1250); type: functional;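 also: protection from viral cytopathic effect measured as cell viability by ATP luminescence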
[5] = Trypanosoma cruzi growth suppression in host cells – NIH3T3 host cells, beta-gal luminescence, confirmation (AID 2044); type: functional, cell-based;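 also: intracellular parasites grown in NIH/3T3 mouse fibroblasts as host cells; luminescent beta-galactosidase reporter signal from transgenic T. cruzi replicating inside host cells; inhibitors lower the luminescence signal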
[6] = target: Neuropeptide Y receptor type 2 (Homo sapiens, UniProt P49146); experiment: Fluorescence-based cell-based high-throughput dose response assay for agonists of NPY-Y2. [Related pubchem assays: 1703 (Screening assay (CNGC inhibitors).), 1359 (Screening assay (NPY-Y2 potentiators or agonists).), 1304 (Screening assay (NPY-Y1 potentiators or agonists).), 1710 (Screening assay (NPY-Y2 agonists).), 1791 (Summary AID.)]; type: functional
[7] = NIH3T3 cell viability loss – ATP luminescence, mouse fibroblasts, counter-screen, dose response (AID 2010); type: functional, cell-based;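 also: cells exposed to compound for about 90 hours before reading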
[8] = target: Neuropeptide Y receptor type 1 (Homo sapiens, UniProt P25929); experiment: Fluorescence-based counterscreen for agonists of NPY-Y2: cell-based high-throughput dose response assay for agonists of NPY-Y1.; type: functional
Neuropeptide Y receptor type 1, sequence (P25929 whole entry): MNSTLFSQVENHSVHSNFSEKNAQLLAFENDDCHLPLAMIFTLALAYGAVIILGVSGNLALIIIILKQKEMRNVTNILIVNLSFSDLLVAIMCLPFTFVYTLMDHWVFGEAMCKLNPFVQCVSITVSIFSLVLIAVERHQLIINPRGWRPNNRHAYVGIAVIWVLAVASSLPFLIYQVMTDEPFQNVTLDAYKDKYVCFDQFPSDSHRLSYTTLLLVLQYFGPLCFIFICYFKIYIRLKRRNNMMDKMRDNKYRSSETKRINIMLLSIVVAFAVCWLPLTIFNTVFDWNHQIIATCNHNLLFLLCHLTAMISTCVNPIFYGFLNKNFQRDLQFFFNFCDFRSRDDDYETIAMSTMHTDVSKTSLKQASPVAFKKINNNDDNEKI

HEK293 = experiment: Fluorescence-based counterscreen for potentiators or agonists of NPY-Y2: cell-based high-throughput dose response assay to identify inhibitors of cyclic nucleotide gated ion channel (CNGC) activity. In this assay, the parental HEK293 cell line transfected with a cyclic-nucleotide gated ion channel (CNGC)-based cAMP sensor is used to measure inhibition of isoproterenol-induced CNGC activity by test compound.; type: functional; settings: Homo sapiens;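 also: stimulus is 1 µM isoproterenol at EC100 plus PDE inhibitor Ro 20-1724 at 25 µM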
[9] = target: Sphingosine 1-phosphate receptor 1 (Homo sapiens, UniProt P21453); type: functional;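 also: Tango beta-arrestin reporter U2OS cells stimulated with S1P near its EC80; inhibitor potency meaning antagonism of receptor activation by the natural agonist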
Sphingosine 1-phosphate receptor 1, sequence (P21453 whole entry): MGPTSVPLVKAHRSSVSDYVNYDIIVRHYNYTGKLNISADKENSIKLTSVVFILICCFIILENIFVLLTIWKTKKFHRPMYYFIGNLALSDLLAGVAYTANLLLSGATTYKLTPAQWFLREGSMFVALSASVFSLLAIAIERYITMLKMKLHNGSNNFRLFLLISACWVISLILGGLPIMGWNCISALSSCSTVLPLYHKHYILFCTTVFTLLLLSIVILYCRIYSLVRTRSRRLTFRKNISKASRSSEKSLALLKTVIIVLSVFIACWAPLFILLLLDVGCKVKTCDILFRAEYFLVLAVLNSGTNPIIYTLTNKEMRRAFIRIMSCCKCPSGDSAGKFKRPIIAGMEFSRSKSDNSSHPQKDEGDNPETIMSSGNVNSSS

[10] = target: Sphingosine 1-phosphate receptor 4 (Homo sapiens, UniProt O95977); experiment: Fluorescence dose response cell-based high throughput screening assay for antagonists of the Sphingosine 1-Phosphate Receptor 4 (S1P4). [Related pubchem assays: 1524 (Confirmation in triplicates.), 1510 (Primary screen.)]; type: functional
Paired box protein Pax-8 = Paired box protein Pax-8 (Homo sapiens, UniProt Q06710); experiment: PAX8 transcriptional activity inhibition in RMG-I – RMG-I cells, luciferase, cherry-pick, dose response (AID 687027); type: functional, cell-based;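 also: luciferase reporter driven by Pax8 target thyroperoxidase promoter measured by SteadyGlo luminescence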
Paired box protein Pax-8, sequence (Q06710 whole entry): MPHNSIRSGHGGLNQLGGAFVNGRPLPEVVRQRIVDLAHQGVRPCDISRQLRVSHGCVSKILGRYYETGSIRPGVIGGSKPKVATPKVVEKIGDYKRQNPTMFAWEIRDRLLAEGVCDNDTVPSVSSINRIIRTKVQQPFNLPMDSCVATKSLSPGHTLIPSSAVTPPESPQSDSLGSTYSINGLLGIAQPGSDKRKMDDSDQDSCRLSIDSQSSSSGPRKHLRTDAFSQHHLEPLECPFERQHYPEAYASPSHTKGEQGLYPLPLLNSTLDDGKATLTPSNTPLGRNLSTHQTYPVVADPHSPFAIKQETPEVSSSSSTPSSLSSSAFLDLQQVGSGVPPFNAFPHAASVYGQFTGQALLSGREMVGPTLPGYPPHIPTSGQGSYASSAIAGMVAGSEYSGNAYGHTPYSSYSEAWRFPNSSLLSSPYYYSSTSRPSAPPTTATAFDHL

HeLa = experiment: Cytotoxicity counterscreen assay for transcriptional activators of heat shock protein 70 (Hsp70). [Related pubchem assays: 1203, 1252 ]; type: functional; settings: Homo sapiens
[11] = target: T2, Microphthalmia-associated transcription factor (Homo sapiens, UniProt O75030); experiment: reducers of TRPM1 reporter luminescence, concentration series – cell-based, SK-MEL-5, cherry-picked, set 3, MITF inhibitor project, dose response (AID 493073); type: functional;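 also: SK-MEL-5 melanoma cells with luciferase driven by the MITF target TRPM1 promoter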
T2 sequence (O75030 whole entry): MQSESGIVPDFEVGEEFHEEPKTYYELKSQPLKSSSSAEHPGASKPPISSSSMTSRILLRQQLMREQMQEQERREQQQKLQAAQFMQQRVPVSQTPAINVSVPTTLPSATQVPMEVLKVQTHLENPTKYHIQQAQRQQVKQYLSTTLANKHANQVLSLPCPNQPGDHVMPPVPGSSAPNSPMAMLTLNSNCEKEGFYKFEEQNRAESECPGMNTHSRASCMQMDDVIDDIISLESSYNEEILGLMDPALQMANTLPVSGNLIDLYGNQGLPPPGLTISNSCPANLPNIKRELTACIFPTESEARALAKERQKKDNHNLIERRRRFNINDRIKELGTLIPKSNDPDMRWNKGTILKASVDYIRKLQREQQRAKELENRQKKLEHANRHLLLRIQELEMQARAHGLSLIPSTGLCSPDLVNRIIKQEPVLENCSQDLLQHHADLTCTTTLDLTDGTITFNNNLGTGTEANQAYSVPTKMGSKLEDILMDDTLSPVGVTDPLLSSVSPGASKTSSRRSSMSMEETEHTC

[12] = target: T3, Heat shock factor protein 1 (Mus musculus, UniProt P38532); experiment: enhancement of HSF1-driven luciferase signal – cell-based, NIH3T3, luminescence, dose retest, confirmation (AID 435004); type: functional;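 also: stress induced by proteasome inhibitor MG132 added 30 min after compound; luciferase reporter driven by HSF1 response element in NIH3T3 cells; actives raise luminescence as potentiators of the MG132 stress response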
T3 sequence (P38532 whole entry): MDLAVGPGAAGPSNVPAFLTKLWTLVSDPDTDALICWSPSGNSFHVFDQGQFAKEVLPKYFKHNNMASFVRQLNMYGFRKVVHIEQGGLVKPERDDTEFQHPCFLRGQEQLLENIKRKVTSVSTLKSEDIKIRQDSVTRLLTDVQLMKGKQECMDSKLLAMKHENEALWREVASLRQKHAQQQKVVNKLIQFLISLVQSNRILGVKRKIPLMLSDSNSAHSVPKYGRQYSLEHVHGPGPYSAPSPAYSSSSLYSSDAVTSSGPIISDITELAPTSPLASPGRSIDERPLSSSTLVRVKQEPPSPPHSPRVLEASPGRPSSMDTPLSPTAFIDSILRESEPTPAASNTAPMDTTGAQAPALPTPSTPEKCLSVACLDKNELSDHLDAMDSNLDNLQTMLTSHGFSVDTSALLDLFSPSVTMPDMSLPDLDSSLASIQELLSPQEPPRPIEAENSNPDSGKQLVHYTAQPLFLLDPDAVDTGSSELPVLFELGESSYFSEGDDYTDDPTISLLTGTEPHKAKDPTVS

Vero = experiment: Vero cell viability after compound exposure – synthesized analogs, set II, cytotoxicity control for West Nile virus antiviral project, SAR follow-up (AID 2402); type: functional; settings: Chlorocebus sabaeus
Kallikrein-7 = Kallikrein-7 (Homo sapiens, UniProt P49862); experiment: Fluorescence Intensity-based biochemical primary high throughput dose response assay to identify activators of kallikrein-7 (K7) zymogen.
Kallikrein-7, sequence (P49862 whole entry): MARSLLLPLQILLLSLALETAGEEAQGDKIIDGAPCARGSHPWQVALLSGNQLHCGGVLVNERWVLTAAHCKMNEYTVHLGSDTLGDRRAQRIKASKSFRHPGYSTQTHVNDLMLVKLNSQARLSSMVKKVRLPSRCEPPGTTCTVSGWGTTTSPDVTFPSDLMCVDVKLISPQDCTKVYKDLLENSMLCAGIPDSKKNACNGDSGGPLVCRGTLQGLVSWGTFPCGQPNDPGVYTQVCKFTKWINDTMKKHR

[13] = A Cell Based Assay for the Identification of Probe candidate Compounds with Anti- Venezuelan Equine Encephalitis virus. [Related pubchem assays: 2409, 2419, 1621, 2238, 2405, 2024, 2065, 2402, 2414, 1635, 1650, 2244 ]; type: functional
Leucine aminopeptidase = target: T4, Leucine aminopeptidase (Plasmodium falciparum 3D7, UniProt Q8IL11); experiment: P. falciparum M17LAP inhibitors, primary screen, biochemical, fluorogenic H-Leu-NHMec substrate, 1536-well (AID 1619); type: functional
T4 sequence (Q8IL11 whole entry): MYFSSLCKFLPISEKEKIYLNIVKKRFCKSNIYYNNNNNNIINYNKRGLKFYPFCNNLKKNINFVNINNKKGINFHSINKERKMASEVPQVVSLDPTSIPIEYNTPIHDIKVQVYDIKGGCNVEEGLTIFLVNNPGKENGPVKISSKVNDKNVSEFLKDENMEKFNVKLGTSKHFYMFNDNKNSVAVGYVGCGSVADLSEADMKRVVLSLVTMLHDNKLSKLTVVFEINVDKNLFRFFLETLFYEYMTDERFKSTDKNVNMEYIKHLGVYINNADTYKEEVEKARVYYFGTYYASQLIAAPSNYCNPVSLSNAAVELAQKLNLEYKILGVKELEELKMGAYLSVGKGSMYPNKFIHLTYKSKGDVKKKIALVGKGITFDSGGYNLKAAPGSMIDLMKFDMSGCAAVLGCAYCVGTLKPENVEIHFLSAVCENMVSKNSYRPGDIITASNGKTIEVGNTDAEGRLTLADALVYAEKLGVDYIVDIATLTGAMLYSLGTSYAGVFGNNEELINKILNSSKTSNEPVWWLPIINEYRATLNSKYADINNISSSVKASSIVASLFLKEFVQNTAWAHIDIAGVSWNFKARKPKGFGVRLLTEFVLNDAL

[14] = mitochondrial function rescue without frataxin homolog – Friedreich's ataxia, plus single-dose screen, dose response (AID 1465); type: functional;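 also: yeast depleted of Yfh1p frataxin homolog grown on glycerol needing respiration; WST-1 tetrazolium dye reduction as measure of cellular dehydrogenase metabolic activity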
Estrogen receptor = target: T5, Estrogen receptor (Homo sapiens, UniProt P03372); experiment: blockers of SRC-3 recruitment to ERα – biochemical, ELISA, streptavidin-HRP readout, orthogonal assay, confirmation (AID 1079)
T5 sequence (P03372 whole entry): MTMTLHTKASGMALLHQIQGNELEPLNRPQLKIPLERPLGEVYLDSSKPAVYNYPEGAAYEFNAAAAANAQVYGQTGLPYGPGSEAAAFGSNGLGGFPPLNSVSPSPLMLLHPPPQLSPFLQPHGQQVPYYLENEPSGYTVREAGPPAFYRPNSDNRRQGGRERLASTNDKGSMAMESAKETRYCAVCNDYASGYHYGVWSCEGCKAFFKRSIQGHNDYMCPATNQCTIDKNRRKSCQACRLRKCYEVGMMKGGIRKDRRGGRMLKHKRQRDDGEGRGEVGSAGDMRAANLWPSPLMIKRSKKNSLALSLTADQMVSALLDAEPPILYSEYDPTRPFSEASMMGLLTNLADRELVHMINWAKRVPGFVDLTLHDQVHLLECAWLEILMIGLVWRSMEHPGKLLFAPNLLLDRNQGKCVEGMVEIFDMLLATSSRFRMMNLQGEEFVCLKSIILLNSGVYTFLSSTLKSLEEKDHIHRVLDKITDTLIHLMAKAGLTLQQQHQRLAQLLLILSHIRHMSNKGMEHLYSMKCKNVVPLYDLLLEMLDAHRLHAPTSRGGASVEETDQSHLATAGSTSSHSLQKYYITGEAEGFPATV

[15] = Luminescence-based counterscreen assay for KLF5 inhibitors: dose response cell-based high throughput screening assay to identify cytotoxic compounds using the IEC-6 intestinal epithelial cell line. [Related pubchem assays: 1700 (Primary screen.), 1834 (Confirmation screen.), 1858 (Summary AID.), 1905 (Counterscreen.)]; type: functional
[16] = blockers of HIV-1 ZM109 envelope-driven cell-cell fusion – HeLa effector, CEM target cells, luciferase, cherry-pick, dose response (AID 652058); type: functional, cell-based;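 also: luciferase signal from HIV-1 Env mediated cell-cell fusion of effector and target cells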
[17] = viability loss in CEM21 cells – cell-based, CellTiter-Glo luminescence, cherry-picked, cytotoxicity control for viral fusion inhibitor project, dose response (AID 652042); type: functional;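 also: potency for signal decrease meaning cytotoxicity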
[18] = blockers of HIV-1 envelope-mediated cell-cell fusion – cherry-pick, dose response (AID 652057); type: functional, cell-based
INS1 = experiment: INS-1E survival protection against cytokine death – cell-based, luminescence, retest, dose response (AID 449756); type: functional; settings: Rattus norvegicus;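 also: cell death triggered by IL-1 beta plus TNF-alpha plus IFN-gamma mixture; protective hits raise ATP signal compared with cytokine alone wells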
[19] = target: Heat shock protein HSP 90-alpha (Homo sapiens, UniProt P07900); type: functional, organism-based
[20] = Luminescence Cell-Based Dose Retest to Confirm Inhibitors of Cancer Stem Cells. [Related pubchem assays (depositor defined):AID2717, AID2721]; type: functional; settings: Homo sapiens
Exodeoxyribonuclease V = Exodeoxyribonuclease V (Escherichia coli (strain K12), UniProt P04993+P07648+P08394); experiment: RecBCD inhibition via phage-restricted bacterial growth – absorbance, V66 E. coli, mutant T4 phage, counter-screen for AddAB inhibitor project, dose response (AID 492957); type: functional, cell-based, Escherichia coli str. K-12 substr. MG1655
[21] = HIV-1 AD8 envelope cell-cell fusion blockers – cherry-pick, dose response (AID 652062); type: functional, cell-based;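 also: luciferase signal from cell-cell fusion driven by HIV-1 clade B AD8 Env; potency is for inhibitors of fusion seen as a drop in luminescence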
[22] = Counterscreen for AddAB inhibitors: absorbance-based bacterial cell-based high throughput dose response assay for inhibitors of bacterial viability. [Related pubchem assays (depositor defined):AID435030, AID449728, AID449731, AID488942, AID488955, AID488956]; type: functional
[23] = off-target signal loss in HeLa-CEM21 co-culture – HeLa F-luc CTL cells, cherry-picked, counter-screen for HIV-1 Env fusion inhibitor project, dose response (AID 652040); type: functional, cell-based;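 also: potency for signal decrease marking cytotoxic or nonspecific inhibition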

Mucolipin-3, sequence (Q8TDD5 whole entry): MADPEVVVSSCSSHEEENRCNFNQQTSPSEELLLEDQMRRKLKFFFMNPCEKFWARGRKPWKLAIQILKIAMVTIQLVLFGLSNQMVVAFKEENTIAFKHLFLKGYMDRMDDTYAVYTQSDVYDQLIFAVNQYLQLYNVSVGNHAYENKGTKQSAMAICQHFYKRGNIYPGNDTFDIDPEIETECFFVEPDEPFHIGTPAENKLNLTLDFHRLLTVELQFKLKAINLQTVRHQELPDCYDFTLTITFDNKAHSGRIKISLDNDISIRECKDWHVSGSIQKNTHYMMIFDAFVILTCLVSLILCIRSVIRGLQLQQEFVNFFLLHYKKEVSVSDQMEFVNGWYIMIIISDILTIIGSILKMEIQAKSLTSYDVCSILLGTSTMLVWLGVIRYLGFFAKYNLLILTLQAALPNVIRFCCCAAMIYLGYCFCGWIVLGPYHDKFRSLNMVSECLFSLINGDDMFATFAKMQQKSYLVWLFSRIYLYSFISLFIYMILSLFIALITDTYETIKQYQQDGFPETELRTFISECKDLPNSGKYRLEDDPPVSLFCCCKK

Compound: COC(=O)c1c(NC(=O)COC(=O)[C@@H](NS(=O)(=O)c2ccc(C)cc2)C(C)C)sc2c1CCC2
- EC50 (Mucolipin-3): 2.8 µM (active)
- EC50 (Ion channel NompC): > 29.9 µM (not active)

Compound: CC(=O)Nc1cc2c(cc1C(C)=O)OCCO2
- IC50 [1]: > 100 µM (not active)
- IC50 [2]: > 100 µM (not active)

Compound: COc1cc(OC)c(C(c2cc3c(cc2O)OCO3)N2CCOCC2)c(OC)c1 (centres undefined)
- IC50 [3]: > 40 µM (not active)

Compound: Cc1ccc2cc(C3CC(c4ccco4)=NN3S(=O)(=O)c3ccccc3)c(Cl)nc2c1 (centres undefined)
- IC50 [4]: 40.7 µM (active)

Compound: Nc1c(-c2ccccc2)c(CSc2nc3ccccc3[nH]2)nn1-c1ccc(Cl)cc1
- EC50 [5]: 0.595 µM (active)
- EC50 [6]: 6.65 µM (active)
- EC50 [7]: 12.2 µM (active)
- EC50 [8]: 7.41 µM (active)
- EC50 (HEK293): > 35.4 µM (not active)

Compound: O=C(Nc1ccc(N2CCN(C(=O)c3ccccc3)CC2)cc1)c1ccc([N+](=O)[O-])o1
- IC50 [9]: 12.7 µM (not active)
- IC50 [10]: 1.64 µM (active)
- AC50 (Paired box protein Pax-8): 3.92 µM (active)
- CC50 (HeLa): 7.65 µM (active)
- AC50 [11]: 17.9 µM (active)
- EC50 [12]: 8.79 µM (active)

Compound: OC1c2cc(Cl)cc(Cl)c2N=C2CCCN21 (centres undefined)
- CC50 (Vero): > 200 µM (active)
- EC50 (Kallikrein-7): 48.5 µM (inactive)
- IC50 [13]: < 0.26 µM (active)

Compound: N#C/C(=C\c1ccc(N2CCOCC2)o1)C(=O)N1CCOCC1
- IC50 (Leucine aminopeptidase): 99.7 µM (active)
- EC50 [14]: > 100 µM (active)

Compound: O=C(CCCCCn1c(=S)[nH]c2ccccc2c1=O)N1CCC(N(Cc2ccccc2)c2ccccc2)CC1
- IC50 (Estrogen receptor): 0.12 µM (not active)

Compound: COc1cccc(/C=N/Nc2ncc(C(F)(F)F)cc2Cl)c1O
- IC50 [15]: 26.8 µM (not active)
- AC50 [16]: 1.45 µM (active)
- AC50 [17]: 2.15 µM (active)
- AC50 [18]: 1.37 µM (active)
- AC50 (INS1): 0.584 µM (active)
- AC50 [19]: 5.59 µM (active)
- AC50 [20]: 0.469 µM (active)
- IC50 (Exodeoxyribonuclease V): > 119 µM (inactive)
- AC50 [21]: 7.04 µM (active)
- IC50 [22]: 98.2 µM (inactive)
- AC50 [23]: 17.4 µM (active)
